Results: US20050113450A1, “Antibacterial agents” (priority 2002, published 2005)
Converted amounts (≈) assume the structure as drawn.

Test system: SA 9218
Assay: MIC by standard agar dilution method
Format: cell-based
Settings: Mueller Hinton agar, 10^4 to 10^5 cells per spot, incubated overnight at 35° C., lowest concentration that inhibits visible growth
Description: The antibacterial agents of this invention have useful activity against a variety of organisms. The in vitro activity of compounds of this invention can be assessed by standard testing procedures such as the determination of minimum inhibitory concentration (MIC) by agar dilution as described in “Approved Standard. Methods for Dilution Antimicrobial Susceptibility Tests for Bacteria That Grow Aerobically”, 3rd. ed., published 1993 by the National Committee for Clinical Laboratory Standards, Villanova, Pa., USA. The in vitro MICs of test compounds were determined by a standard agar dilution method. A stock drug solution of each analog was prepared in the preferred solvent, usually DMSO:H2O (1:3). Serial 2-fold dilutions of each sample are made using 1.0 ml aliquots of sterile distilled water. To each 1.0 ml aliquot of drug was added 9 ml of molten Mueller Hinton agar medium. The drug-supplemented agar was mixed, poured into 15×100 mm petri dishes, and allowed to solidify and dry prior to inoculation. Vials of each of the test organisms are maintained frozen in the vapor phase of a liquid nitrogen freezer. Test cultures are grown overnight at 35° C. on the medium appropriate for the organism. Colonies are harvested with a sterile swab, and cell suspensions are prepared in Trypticase Soy broth (TSB) to equal the turbidity of a 0.5 McFarland standard. A 1:20 dilution of each suspension was made in TSB. The plates containing the drug supplemented agar are inoculated with a 0.001 ml drop of the cell suspension using a Steers replicator, yielding approximately 10^4 to 10^5 cells per spot. The plates are incubated overnight at 35° C. Following incubation the Minimum Inhibitory Concentration (MIC μg/ml), the lowest concentration of drug that inhibits visible growth of the organism, was read and recorded.

Row | SMILES | MIC | SA 9218 MIC
1 | O=C(Nc1ccc(Br)cc1C(=O)O)c1ccc(OCCc2cccc([N+](=O)[O-])c2)cc1 | 64 µg/mL (≈ 132 µM) | 
2 | CN(C)c1ccc(C(=O)c2cccc(C(=O)Nc3ccc(Cl)cc3C(=O)O)c2)cc1 | 4 µg/mL (≈ 9.46 µM) | 
3 | N#Cc1ccc(NC(=O)c2cccc(S(=O)(=O)n3cnc4ccccc43)c2)c(C(=O)O)c1 [PHA-630330] | 0.5 µg/mL (≈ 1.12 µM) | 
4 | CCCN(CCC)S(=O)(=O)c1ccc(C(=O)Nc2ccc(Cl)cc2C(=O)O)cc1N.Cl [PNU-283603A] | 16 µg/mL | 
5 | N#Cc1ccc(NC(=O)c2cccc(F)c2)c(C(=O)O)c1 | 64 µg/mL (≈ 225 µM) | 
6 | O=C(Nc1ccc(Br)cc1C(=O)O)c1cc(S(=O)(=O)NC2Cc3ccccc3C2)ccc1Br | 0.25 µg/mL (≈ 0.421 µM) | 
7 | CC(C)(C)N1C(=O)c2ccc(C(=O)Nc3ccc(C#N)cc3C(=O)O)cc2C1=O [PHA-630726] | 4 µg/mL (≈ 10.2 µM) | 
8 | O=C(Nc1ccc(Br)cc1C(=O)O)c1cccc(S(=O)(=O)n2ccc3ccccc32)c1 [PHA-516116] | 0.5 µg/mL (≈ 1 µM) | 
9 | O=C(Nc1ccc(Br)cc1C(=O)O)c1cccc(S(=O)(=O)Nc2ccc(N3CCOCC3)cc2)c1 | 32 µg/mL (≈ 57.1 µM) | 
10 | N#Cc1ccc(NC(=O)c2ccccc2)c(C(=O)O)c1 [PHA-530685] |  | 32 µg/mL
11 | N#Cc1ccc(NC(=O)c2ccc(S(=O)(=O)N3CCOCC3)cc2)c(C(=O)O)c1 [PHA-571255] | > 128 µg/mL | 
12 | N#Cc1ccc(NC(=O)c2cccc(S(=O)(=O)N3CCCC3)c2)c(C(=O)O)c1 [PHA-543140] | 1 µg/mL (≈ 2.5 µM) | 
13 | CC(C)(C)CCOc1ccc(C(=O)Nc2ccc(Br)cc2C(=O)O)cc1 | 64 µg/mL (≈ 152 µM) | 
14 | O=C(Nc1ccc(Br)cc1C(=O)O)c1cccc(C(=O)c2ccccc2)c1 [PHA-515448] | 2 µg/mL (≈ 4.71 µM) | 
15 | COc1ccc(S(=O)(=O)N(C)c2ccc(Cl)cc2)cc1C(=O)Nc1ccc(Br)cc1C(=O)O [PNU-289815] | 8 µg/mL (≈ 14.4 µM) | 
16 | N#Cc1ccc(NC(=O)c2cc(CCO)cc(S(=O)(=O)N3CCc4ccccc43)c2)c(C(=O)O)c1 [PHA-568425] | 8 µg/mL (≈ 16.3 µM) | 
17 | COc1cc(C(=O)Nc2ccc(Br)cc2C(=O)O)ccc1[N+](=O)[O-] | 32 µg/mL (≈ 81 µM) | 
18 | CC(C)(C)OC(=O)NC(COc1cccc(C(=O)Nc2ccc(Br)cc2C(=O)O)c1)c1ccccc1 (centres unmarked) [PHA-571287] | 2 µg/mL (≈ 3.6 µM) | 
19 | Cc1cc(C)n(COc2ccc(C(=O)Nc3ccc(Br)cc3C(=O)O)cc2)n1 | 64 µg/mL (≈ 144 µM) | 
20 | O=C(Nc1ccc(Cl)cc1C(=O)O)c1ccc(C(=O)C2CCCC2)cc1 [drawing 1027] |  | 8 µg/mL
21 | O=C(Nc1ccc(Br)cc1C(=O)O)c1ccc(NC(=O)c2sc3ccccc3c2Cl)cc1 [PHA-713392] | > 128 µg/mL | 
22 | O=C(Nc1ccc(Br)cc1C(=O)O)c1ccc(OCCOc2ccccc2)cc1 | 128 µg/mL (≈ 281 µM) | 
23 | CC1CN(S(=O)(=O)c2ccc(C(=O)Nc3ccc(C#N)cc3C(=O)O)cc2)CC(C)O1 (centres unmarked) [PHA-571182] | 64 µg/mL (≈ 144 µM) | 

Row | SMILES | MIC | SA 9218 MIC
24 | N#Cc1ccc(NC(=S)c2cccc(S(=O)(=O)N3CCCC3)c2)c(C(=O)O)c1 [PHA-662431] | 1 µg/mL (≈ 2.41 µM) | 
25 | O=C(Nc1ccc(-c2cccs2)cc1C(=O)O)c1ccc(S(=O)(=O)N2CCc3ccccc32)cc1 | 4 µg/mL (≈ 7.93 µM) | 
26 | Cc1ccc(S(=O)(=O)Nc2ccc3c(c2)OCCO3)cc1C(=O)Nc1ccc(Br)cc1C(=O)O | 64 µg/mL (≈ 117 µM) | 
27 | COc1ccc2c(ccn2S(=O)(=O)c2ccc(C(=O)Nc3ccc(Br)cc3C(=O)O)cc2)c1 [PNU-291517] | 2 µg/mL (≈ 3.78 µM) | 
28 | CCCCCCCCCCC(=O)NCc1ccc(C(=O)Nc2ccc(C#N)cc2C(=O)O)cc1S(=O)(=O)N1CCc2ccccc21 [PHA-738532] | 32 µg/mL (≈ 49.6 µM) | 
29 | O=C(Nc1ccc(I)cc1C(=O)O)c1ccc(S(=O)(=O)N2CC=CC2)cc1 | 32 µg/mL (≈ 64.2 µM) | 
30 | COc1cc2c(cc1OC)CN(S(=O)(=O)c1cccc(C(=O)Nc3ccc(C#N)cc3C(=O)O)c1)CC2 [PHA-571194] | 4 µg/mL (≈ 7.67 µM) | 
31 | CON=C(c1ccccc1)c1cccc(C(=O)Nc2ccc(C#N)cc2C(=O)O)c1 [PHA-535549] | 0.25 µg/mL (≈ 0.626 µM) | 
32 | O=C(Nc1ccc(Br)cc1C(=O)O)c1cc(S(=O)(=O)Nc2ccc3c(c2)OCCO3)ccc1Br | 0.5 µg/mL (≈ 0.817 µM) | 
33 | CC#CCOc1ccc(C(=O)Nc2ccc(Br)cc2C(=O)O)cc1 | 16 µg/mL (≈ 41.2 µM) | 
34 | COC(=O)C(Oc1cccc(C(=O)Nc2ccc(Br)cc2C(=O)O)c1)c1ccccc1 (centres unmarked) | 4 µg/mL (≈ 8.26 µM) | 
35 | CCN(Cc1ccncc1)S(=O)(=O)c1ccc(C)c(C(=O)Nc2ccc(Br)cc2C(=O)O)c1 | > 128 µg/mL | 
36 | O=C(Nc1ccc(Br)cc1C(=O)O)c1cccc(C(=NO)c2ccccc2)c1 [PHA-524545] |  | 0.25 µg/mL
37 | O=C(Nc1ccc(Br)cc1C(=O)O)c1ccc(S(=O)(=O)n2ccc3ccc(F)cc32)cc1 [PNU-291011] | 0.25 µg/mL (≈ 0.483 µM) | 
38 | COc1cc(C(=O)Nc2ccc(Br)cc2C(=O)O)cc(OC)c1OC | 32 µg/mL (≈ 78 µM) | 
39 | CCON=C(c1ccccc1)c1ccc(NC(=O)c2ccc(S(=O)(=O)N3CCc4ccccc43)cc2)c(C(=O)O)c1 | 16 µg/mL (≈ 28.1 µM) | 
40 | O=C(Nc1ccc(-c2ccc(F)cc2)cc1C(=O)O)c1cccc(S(=O)(=O)N2CCc3cc(Cl)ccc32)c1 [PHA-563278] | 2 µg/mL (≈ 3.63 µM) | 
41 | O=C(Nc1ccc(Br)cc1C(=O)O)c1cccc(OCc2cccnc2)c1 | 32 µg/mL (≈ 74.9 µM) | 
42 | COc1ccc(C(=O)Nc2ccc(Br)cc2C(=O)O)cc1S(=O)(=O)NCCc1ccc(N)cc1 | 128 µg/mL (≈ 233 µM) | 
43 | O=C(Nc1ccc(Br)cc1C(=O)O)c1cccc(NS(=O)(=O)c2ccc(Cl)c(Cl)c2)c1 [PHA-713410] | 1 µg/mL (≈ 1.84 µM) | 
44 | Cc1ccc(C(=O)Nc2ccc(Br)cc2C(=O)O)cc1S(=O)(=O)N(C)c1ccc(Cl)cc1 [PNU-291571] | 0.5 µg/mL (≈ 0.93 µM) | 
45 | Nc1cc(C(=O)Nc2ccc(Cl)cc2C(=O)O)ccc1S(=O)(=O)N1CCc2ccccc21 [PNU-290881A] | 4 µg/mL (≈ 8.48 µM) | 
46 | O=C(Nc1ccc(Br)cc1C(=O)O)c1ccc(OCCN2C(=O)c3ccccc3C2=O)cc1 | 64 µg/mL (≈ 126 µM) | 

Row | SMILES | MIC | SA 9218 MIC
47 | CCOC(=O)C1CCC(Oc2cccc(C(=O)Nc3ccc(Br)cc3C(=O)O)c2)CC1 (centres unmarked) [PHA-571289] | 32 µg/mL (≈ 65.3 µM) | 
48 | CON=C(c1cccc(C(=O)Nc2ccc(Cl)cc2C(=O)O)c1)c1ccco1 | 16 µg/mL (≈ 40.1 µM) | 
49 | O=C(Nc1ccc(Br)cc1C(=O)O)c1ccc(Br)c(S(=O)(=O)N2CCN(c3cccc(C(F)(F)F)c3)CC2)c1 | 8 µg/mL (≈ 11.6 µM) | 
50 | O=C(Nc1ccc(C#CCO)cc1C(=O)O)c1cccc(S(=O)(=O)N2CCc3ccccc32)c1 [PHA-687570] | 128 µg/mL (≈ 269 µM) | 
51 | CCOc1cc(C(=O)Nc2ccc(Br)cc2C(=O)O)cc(OCC)c1OCC | 32 µg/mL (≈ 70.7 µM) | 
52 | Cc1ccc(S(=O)(=O)N(C)c2ccc(Cl)cc2)cc1C(=O)Nc1ccc(Br)cc1C(=O)O [PNU-290821] | 64 µg/mL (≈ 119 µM) | 
53 | COc1ccc(-c2ccc(NC(=O)c3cccc(S(=O)(=O)N4CCOCC4)c3)c(C(=O)O)c2)cc1 [PHA-610941] | > 128 µg/mL | 
54 | N#Cc1ccc(NC(=O)c2cccc(C(=O)N3CCOCC3)c2)c(C(=O)O)c1 [PHA-662412] | 64 µg/mL (≈ 169 µM) | 
55 | O=C(Nc1ccc(Br)cc1C(=O)O)c1cccc(OC2CCOC2=O)c1 (centres unmarked) [PHA-571285] | 64 µg/mL (≈ 152 µM) | 
56 | O=C(Nc1ccc(I)cc1C(=O)O)c1cccc(S(=O)(=O)N2CCOCC2)c1 [PHA-571458] | 4 µg/mL (≈ 7.75 µM) | 
57 | CC(C)(C)N1C(=O)c2ccc(C(=O)Nc3ccc(Br)cc3C(=O)O)cc2C1=O [PHA-630989] | 4 µg/mL (≈ 8.98 µM) | 
58 | O=C(Nc1ccc(-c2ccccc2)cc1C(=O)O)c1ccc(S(=O)(=O)N2CCc3ccccc32)cc1 [L-217792] | 8 µg/mL (≈ 16 µM) | 
59 | CC(C)(C)c1ccc(-c2ccc(NC(=O)c3cccc(S(=O)(=O)N4CCc5cc(Cl)ccc54)c3)c(C(=O)O)c2)cc1 [PHA-563283] | 16 µg/mL (≈ 27.2 µM) | 
60 | Cc1ccc(C(=O)Nc2ccc(Br)cc2C(=O)O)cc1S(=O)(=O)N1CCc2ccccc21 | 1 µg/mL (≈ 1.94 µM) | 
61 | O=C1CCC(COc2cccc(C(=O)Nc3ccc(Br)cc3C(=O)O)c2)N1 (centres unmarked) [PHA-571280] |  | >128 µg/mL
62 | Cc1ccc(C(=O)Nc2ccc(Br)cc2C(=O)O)cc1S(=O)(=O)Nc1ccc2c(c1)OCCO2 | 1 µg/mL (≈ 1.83 µM) | 
63 | COC(=O)C(Oc1ccc(C(=O)Nc2ccc(Br)cc2C(=O)O)cc1)c1ccccc1 (centres unmarked) | 64 µg/mL (≈ 132 µM) | 
64 | CCOC(=O)C1CCC(Oc2ccc(C(=O)Nc3ccc(Br)cc3C(=O)O)cc2)CC1 (centres unmarked) | > 128 µg/mL | 
65 | N#Cc1ccc(NC(=O)c2cccc(CS(=O)(=O)N3CCCC3)c2)c(C(=O)O)c1 [PHA-630852, 5-cyano-2-({3-[(1-pyrrolidinylsulfonyl)methyl]benzoyl}amino)benzoic acid] | 4 µg/mL (≈ 9.67 µM) | 
66 | COc1cc(COc2ccc(C(=O)Nc3ccc(Br)cc3C(=O)O)cc2)cc(OC)c1 | 8 µg/mL (≈ 16.5 µM) | 
67 | O=C(Nc1ccc(Br)cc1C(=O)O)c1cc(Br)cc(S(=O)(=O)N2CCc3cc(Br)ccc32)c1 [PHA-515585] | 1 µg/mL (≈ 1.52 µM) | 
68 | COc1ccccc1C(=O)c1cccc(C(=O)Nc2ccc(Cl)cc2C(=O)O)c1 [PHA-656885] | 16 µg/mL (≈ 39 µM) | 
